Structures can show the parent of a compound that is named as a salt. Where two headings read alike, the source gives them in different places.
What was measured:
IRAK4 = target: T1, IRAK4 (Homo sapiens, UniProt Q9NWZ3); assay: IRAK-4 activity inhibition assay (Caliper); format: biochemical; settings: 37 μM ATP, 3.5 nM IRAK4
T1 sequence (Q9NWZ3 1-460): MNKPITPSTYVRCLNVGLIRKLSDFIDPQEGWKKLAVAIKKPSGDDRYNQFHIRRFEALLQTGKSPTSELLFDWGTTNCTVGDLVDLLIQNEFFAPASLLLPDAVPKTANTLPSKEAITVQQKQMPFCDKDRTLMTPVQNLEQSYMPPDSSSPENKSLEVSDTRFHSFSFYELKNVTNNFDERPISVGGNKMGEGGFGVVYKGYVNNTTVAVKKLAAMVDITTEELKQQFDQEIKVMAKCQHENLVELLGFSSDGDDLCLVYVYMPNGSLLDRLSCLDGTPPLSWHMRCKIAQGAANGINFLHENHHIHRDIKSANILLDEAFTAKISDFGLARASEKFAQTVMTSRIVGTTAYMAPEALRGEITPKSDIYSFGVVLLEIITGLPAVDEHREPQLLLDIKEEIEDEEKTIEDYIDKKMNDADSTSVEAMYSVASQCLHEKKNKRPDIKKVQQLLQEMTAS

THP-1 cells = assay: LPS induced cytokine (TNFα and IL8) production assay in THP-1 cells; format: cell-based; settings: Homo sapiens, 300 ng/mL LPS
Protocol: Cytokine Production Assay
Provided compounds were also assayed in an LPS (Lipopolysacharide) or R848 (TLR-7 agonist) induced cytokine (TNFα and IL8) production assay in THP-1 cells, human peripheral blood mononuclear cells (hPBMC), and whole blood. The exemplary protocol for this assay in THP-1 cells was as follows below.
THP-1 cells from ATCC (TIB-202) were cultured in RPMI Medium 1640 (Invitrogen, Cat No. A10491-01), 10% fetal bovine serum (Invitrogen, Cat No. 10099141, Lot No. 8172882) containing 100 U/mL Penicillin, 100 μg/mL streptomycin (Invitrogen, Cat No. 15140-122), and 50 uM 2-Mercaptoethanol (Invitrogen, Cat No. 21985023). LPS-EK ultra pure (Invivogen, Cat No. tlrl-peklps) was used to induce IL8 and TNFα production, that was detected in the cell culture supernatant by IL8 HTRF kit (Cisbio, Cat No. 62IL8PEB) and TNFα HTRF kit (Cisbio, Cat No. 62TNFPEB), as per manufacturer instructions. Cells were cultured in 96 well assay plates at 100,000 cells per well, and compounds diluted in final 0.3% DMSO were pre-incubated with cells for 1 hour prior to stimulation with 300 ng/mL LPS. Cytokine production in cell supernatant was measured at 5 hours for TNFα and IL8 production, and for 16 hours for IL8 production and assessment of cell viability.
The compound numbers correspond to the compound numbers in Table 1. […] “NA” stands for “not assayed.”

`CN(C)[C@H]1CC[C@H](Oc2ncnc3sc4c(c23)[C@@H](CC(O)C(N)=O)CC4)CC1` (stereo partly drawn) [Compound I-57, 3-[(3R)-12-[[4-(dimethylamino)cyclohexyl]oxy]-7-thia-9,11-diazatricyclo[6.4.0.0[2,6]]dodeca-1(8),2(6),9,11-tetraen-3-yl]-2-hydroxypropanamide] was tested, and the IC50 (IRAK4) was < 5 µM, the IC50 (THP-1 cells; read-out: IL8 production IC50) was ≤ 0.5 µM and the IC50 (THP-1 cells; read-out: TNFα production IC50) was ≤ 0.5 µM.
For `CC[C@@H](O)C[C@H]1CCc2sc3ncnc(O[C@H]4CC[C@H](N5CCOCC5)CC4)c3c21` [Compound I-65, (R)-1-((R)-4-(((1r,4R)-4-morpholinocyclohexyl)oxy)-6,7-dihydro-5H-cyclopent[4,5]thieno[2,3-d]pyrimidin-5-yl)butan-2-ol], the IC50 (IRAK4) was < 5 µM, the IC50 (THP-1 cells; read-out: IL8 production IC50) was 1 to 5 µM and the IC50 (THP-1 cells; read-out: TNFα production IC50) was 0.5 to 1 µM.
`CN(C)[C@H]1CC[C@H](Oc2ncnc3sc4c(c23)[C@@H](C[C@@H](O)C(F)(F)F)CC4)CC1` [Compound I-68, (R)-3-((R)-4-(((1r,4R)-4-(dimethylamino)cyclohexyl)oxy)-6,7-dihydro-5H-cyclopenta[4,5]thieno[2,3-d]pyrimidin-5-yl)-1,1,1-trifluoropropan-2-ol] was tested, and the IC50 (IRAK4) was < 5 µM, the IC50 (THP-1 cells; read-out: IL8 production IC50) was ≤ 0.5 µM and the IC50 (THP-1 cells; read-out: TNFα production IC50) was 0.5 to 1 µM.
`CC[C@@H](O)C[C@H]1CCc2sc3ncnc(O[C@H]4CC[C@H](N(C)CC(=O)N5CCCC5)CC4)c3c21` [Compound I-71, 2-[(4-[[(3R)-3-[(2R)-2-hydroxybutyl]-7-thia-9,11-diazatricyclo[6.4.0.0[2,6]]dodeca-1(8),2(6),9,11-tetraen-12-yl]oxy]cyclohexyl)(methyl)amino]-1-(pyrrolidin-1-yl)ethan-1-one] was tested, and the IC50 (IRAK4) was < 5 µM, the IC50 (THP-1 cells; read-out: IL8 production IC50) was 1 to 5 µM and the IC50 (THP-1 cells; read-out: TNFα production IC50) was 0.5 to 1 µM.
For `CO[C@H](C[C@H]1CCc2sc3ncnc(O[C@H]4CC[C@H](N(C)C)CC4)c3c21)C(N)=O` [Compound I-77, (2R)-3-[(3R)-12-[[4-(dimethylamino)cyclohexyl]oxy]-7-thia-9,11-diazatricyclo[6.4.0.0[2,6]]dodeca-1(8),2(6),9,11-tetraen-3-yl]-2-methoxypropanamide], the IC50 (IRAK4) was < 5 µM, the IC50 (THP-1 cells; read-out: IL8 production IC50) was 0.5 to 1 µM and the IC50 (THP-1 cells; read-out: TNFα production IC50) was 1 to 5 µM.
`C[C@H](O)C[C@H]1CCc2sc3ncnc(O[C@H]4CC[C@H](N5CCOCC5)CC4)c3c21` [Compound I-83, (S)-1-((R)-4-(((1 r,4R)-4-morpholinocyclohexyl)oxy)-6,7-dihydro-5H-cyclopenta[4,5]thieno[2,3-d]pyrimidin-5-yl)propan-2-ol] was tested, and the IC50 (IRAK4) was < 5 µM and the IC50 (THP-1 cells; read-out: TNFα production IC50) was 0.5 to 1 µM.
In the case of `N#CC(C[C@H]1CCc2sc3ncnc(O[C@H]4CC[C@H](N5CCOCC5)CC4)c3c21)C(N)=O` (stereo partly drawn) [Compound I-86, 2-cyano-3-((R)-4-(((1r,4R)-4-morpholinocyclohexyl)oxy)-6,7-dihydro-5H-cyclopenta[4,5]thieno[2,3-d]pyrimidin-5-yl)propanamide], the IC50 (IRAK4) is reported as < 5 µM and the IC50 (THP-1 cells; read-out: TNFα production IC50) is reported as 1 to 5 µM.
For `CN(C)[C@H]1CC[C@H](Oc2ncnc3sc4c(c23)[C@@H](C[C@@H](O)C2CCCO2)CC4)CC1` (stereo partly drawn) [Compound I-88, (1R)-2-((R)-4-(((1r,4R)-4-(dimethylamino)cyclohexyl)oxy)-6,7-dihydro-5H-cyclopenta[4,5]thieno[2,3-d]pyrimidin-5-yl)-1-(tetrahydrofuran-2-yl)ethanol], the IC50 (IRAK4) was < 5 µM, the IC50 (THP-1 cells; read-out: IL8 production IC50) was 1 to 5 µM and the IC50 (THP-1 cells; read-out: TNFα production IC50) was 1 to 5 µM.
`CN(CC(=O)N1CCCC1)[C@H]1CC[C@H](Oc2ncnc3sc4c(c23)[C@@H](CCO)CC4)CC1` [Compound I-90, 2-(((1R,4r)-4-(((R)-5-(2-hydroxyethyl)-6,7-dihydro-5H-cyclopenta[4,5]thieno[2,3-d]pyrimidin-4-yl)oxy)cyclohexyl)(methyl)amino)-1-(pyrrolidin-1-yl)ethanone] was tested, and the IC50 (IRAK4) was < 5 µM and the IC50 (THP-1 cells; read-out: TNFα production IC50) was 1 to 5 µM.
With `CN(CC(=O)N1CCCC1)[C@H]1CC[C@H](Oc2ncnc3sc4c(c23)[C@@H](CCC(N)=O)CC4)CC1` [Compound I-94, 3-((S)-4-(((1r,4S)-4-(methyl(2-oxo-2-(pyrrolidin-1-yl)ethyl)amino)cyclohexyl)oxy)-6,7-dihydro-5H-cyclopenta[4,5]thieno[2,3-d]pyrimidin-5-yl)propanamide] the IC50 (IRAK4) was < 5 µM and the IC50 (THP-1 cells; read-out: TNFα production IC50) was ≥ 5 µM.
For `CN(C)[C@H]1CC[C@H](Oc2ncnc3sc4c(c23)[C@@H](C[C@H](O)C(=O)NCO)CC4)CC1` [Compound I-100, (S)-3-((R)-4-(((1r,4R)-4-(dimethylamino)cyclohexyl)oxy)-6,7-dihydro-5H-cyclopenta[4,5]thieno[2,3-d]pyrimidin-5-yl)-2-hydroxy-N-(hydroxymethyl)propanamide], the IC50 (IRAK4) was < 5 µM, the IC50 (THP-1 cells; read-out: IL8 production IC50) was 1 to 5 µM and the IC50 (THP-1 cells; read-out: TNFα production IC50) was 1 to 5 µM.
`CC[C@@H](O)C[C@H]1CCc2sc3ncnc(O[C@H]4CC[C@H](N(C)C)CC4)c3c21` [Compound I-106] was tested, and the IC50 (IRAK4) was < 5 µM, the IC50 (THP-1 cells; read-out: IL8 production IC50) was 0.5 to 1 µM and the IC50 (THP-1 cells; read-out: TNFα production IC50) was 0.5 to 1 µM.
`CN(C)[C@H]1CC[C@H](Oc2ncnc3sc4c(c23)CC(CCO)CC4)CC1` (stereo partly drawn) [Compound I-108, 2-[3-[[4-(dimethylamino)cyclohexyl]oxy]-8-thia-4,6-diazatricyclo[7.4.0.0[2,7]]trideca-1(9),2(7),3,5-tetraen-12-yl]ethan-1-ol formate] was tested, and the IC50 (IRAK4) was < 5 µM and the IC50 (THP-1 cells; read-out: TNFα production IC50) was 1 to 5 µM.
With `C[C@@H](O)C[C@H]1CCc2sc3ncnc(O[C@H]4CC[C@H](N(C)CC(=O)N5CCCC5)CC4)c3c21` [Compound I-109, 2-[(4-[[(3R)-3-[(2R)-2-hydroxypropyl]-7-thia-9,11-diazatricyclo[6.4.0.0[2,6]]dodeca-1(8),2(6),9,11-tetraen-12-yl]oxy]cyclohexyl)(methyl)amino]-1-(pyrrolidin-1-yl)ethan-1-one] the IC50 (IRAK4) was < 5 µM and the IC50 (THP-1 cells; read-out: TNFα production IC50) was 0.5 to 1 µM.
For `CN(C)[C@H]1CC[C@H](Oc2ncnc3sc4c(c23)C[C@H](CCO)CC4)CC1` [Compound I-110, 2-[(12R)-3-[[4-(dimethylamino)cyclohexyl]oxy]-8-thia-4,6-diazatricyclo[7.4.0.0[2,7]]trideca-1(9),2(7),3,5-tetraen-12-yl]ethan-1-ol formate], the IC50 (IRAK4) was < 5 µM, the IC50 (THP-1 cells; read-out: IL8 production IC50) was ≤ 0.5 µM and the IC50 (THP-1 cells; read-out: TNFα production IC50) was 0.5 to 1 µM.
For `NC(=O)[C@@H](O)C[C@H]1CCc2sc3ncnc(N[C@H]4CC[C@H](N5CCOCC5)CC4)c3c21` [Compound I-120, (S)-2-hydroxy-3-((R)-4-(((1r,4R)-4-morpholinocyclohexyl)amino)-6,7-dihydro-5H-cycyclopenta[4,5]thieno[2,3-d]pyrimidin-5-yl)propanamide], the IC50 (IRAK4) was < 5 µM, the IC50 (THP-1 cells; read-out: IL8 production IC50) was ≤ 0.5 µM and the IC50 (THP-1 cells; read-out: TNFα production IC50) was ≤ 0.5 µM.
For `CN(CCc1ccccn1)[C@H]1CC[C@H](Oc2ncnc3sc4c(c23)[C@@H](CC(N)=O)CC4)CC1` [Compound I-128, 2-((R)-4-(((1 r,4R)-4-(methyl(2-(pyridin-2-yl)ethyl)amino)cyclohexyl)oxy)-6,7-dihydro-5H-cyclopenta[4,5]thieno[2,3-d]pyrimidin-5-yl)acetamide], the IC50 (IRAK4) was < 5 µM, the IC50 (THP-1 cells; read-out: IL8 production IC50) was 0.5 to 1 µM and the IC50 (THP-1 cells; read-out: TNFα production IC50) was 1 to 5 µM.
In the case of `NC(=O)[C@@H](O)C[C@H]1CCc2sc3ncnc(O[C@H]4CC[C@H](N)CC4)c3c21` [Compound I-135, (S)-3-((R)-4-(((1r,4R)-4-aminocyclohexyl)oxy)-6,7-dihydro-5H-cyclopenta[4,5]thieno[2,3-d]pyrimidin-5-yl)-2-hydroxypropanamide], the IC50 (IRAK4) is reported as < 5 µM, the IC50 (THP-1 cells; read-out: IL8 production IC50) is reported as 0.5 to 1 µM and the IC50 (THP-1 cells; read-out: TNFα production IC50) is reported as 0.5 to 1 µM.
In the case of `CCN[C@H]1CC[C@H](Oc2ncnc3sc4c(c23)[C@@H](C[C@H](O)C(N)=O)CC4)CC1` [Compound I-136, (2S)-3-[(3R)-12-[[4-(ethylamino)cyclohexyl]oxy]-7-thia-9,11-diazatricyclo[6.4.0.0[2,6]]dodeca-1(8),2(6),9,11-tetraen-3-yl]-2-hydroxypropanamide], the IC50 (IRAK4) is reported as < 5 µM, the IC50 (THP-1 cells; read-out: IL8 production IC50) is reported as ≤ 0.5 µM and the IC50 (THP-1 cells; read-out: TNFα production IC50) is reported as 0.5 to 1 µM.
`CN[C@H]1CC[C@H](Oc2ncnc3sc4c(c23)[C@@H](C[C@H](O)C(N)=O)CC4)CC1` [Compound I-137, (2S)-2-hydroxy-3-[(3R)-12-[[4-(methylamino)cyclohexyl]oxy]-7-thia-9,11-diazatricyclo[6.4.0.0[2,6]]dodeca-1(8),2(6),9,11-tetraen-3-yl]propanamide] was tested, and the IC50 (IRAK4) was < 5 µM, the IC50 (THP-1 cells; read-out: IL8 production IC50) was 0.5 to 1 µM and the IC50 (THP-1 cells; read-out: TNFα production IC50) was 0.5 to 1 µM.
For `NC(=O)C(F)(F)C[C@H]1CCc2sc3ncnc(O[C@H]4CC[C@H](N5CCOCC5)CC4)c3c21` [Compound I-142, 2,2-difluoro-3-((R)-4-(((1r,4R)-4-morpholinocyclohexyl)oxy)-6,7-dihydro-5H-cyclopenta[4,5]thieno[2,3-d]pyrimidin-5-yl)propanamide], the IC50 (IRAK4) was < 5 µM, the IC50 (THP-1 cells; read-out: IL8 production IC50) was ≤ 0.5 µM and the IC50 (THP-1 cells; read-out: TNFα production IC50) was ≤ 0.5 µM.
